The test system of assay [1] is HCT116 MTAP null cells. In words: HCT116 proliferation assay, MTAP null cells (CellTiter-Glo, 6 days). Format: cell-based. The note with it: HCT116-MTAP null, 144 h, read-out: Protif_ HCT116-MTAP null IC50. In outline: (§1)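 Seed cells in RPMI 1640 supplemented with 10% FBS and incubate overnight at 37° C under 5% CO2. Treat with serially diluted compound (threefold steps, 8 or 9 points, highest 1 or 10 µM) or DMSO alone, then quantify viability by luminescence.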
For orientation: In ATP-based viability assays light output follows the ATP content of the culture.

Assay [2] has as its system HCT116 WT cells. In words: HCT116 proliferation assay, WT cells (CellTiter-Glo, 6 days). Format: cell-based. The note with it: Homo sapiens, HCT-116, 144 h, read-out: Prolif_HCT116-WT IC50. In outline: as §1
The target in assay [3] is PRMT5/MEP50 (Homo sapiens, UniProt O14744). In words: MTase-Glo methyl transferase assay, Method B (FL-Histone H2A, 1 µM MTA, 1 h pre-incubation). Format: biochemical. On the set-up: purchased Reaction Biology Corp RD-11-292. The settings on record: read-out: PRMT5 MTase Glo Ki (nM, Meth. B). An outline of the steps: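 PRMT5/MEP50 (4 nM) was pre-incubated 1 h with compound, 5 µM SAM and 1 µM MTA, then started with 2.5 µM FL-Histone H2A in Tris pH 8.0 buffer. After 20 h at room temperature, SAH was detected by MTase-Glo luminescence, and IC50/KI were fitted from dose-response curves.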
Chain of PRMT5/MEP50 (O14744 2-637 limits assumed): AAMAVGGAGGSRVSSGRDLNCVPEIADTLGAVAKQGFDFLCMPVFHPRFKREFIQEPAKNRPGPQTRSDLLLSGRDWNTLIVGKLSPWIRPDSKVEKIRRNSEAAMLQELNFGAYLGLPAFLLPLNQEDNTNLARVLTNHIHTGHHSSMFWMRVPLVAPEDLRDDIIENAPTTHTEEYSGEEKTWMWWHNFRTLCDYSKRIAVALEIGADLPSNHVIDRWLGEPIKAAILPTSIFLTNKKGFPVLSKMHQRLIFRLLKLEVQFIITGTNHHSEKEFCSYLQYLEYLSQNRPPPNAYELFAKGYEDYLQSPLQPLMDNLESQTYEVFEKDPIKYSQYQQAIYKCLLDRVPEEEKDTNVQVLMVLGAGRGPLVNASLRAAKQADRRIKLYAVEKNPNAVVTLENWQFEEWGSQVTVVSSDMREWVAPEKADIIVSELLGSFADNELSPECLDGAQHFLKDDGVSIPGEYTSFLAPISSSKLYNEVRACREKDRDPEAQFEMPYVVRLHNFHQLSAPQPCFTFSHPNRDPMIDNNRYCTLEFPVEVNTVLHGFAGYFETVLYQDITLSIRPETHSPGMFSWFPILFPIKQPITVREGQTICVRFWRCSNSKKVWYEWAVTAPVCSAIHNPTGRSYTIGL
Chain of PRMT5/MEP50 (Q9BQA1 2-342 partner limits assumed): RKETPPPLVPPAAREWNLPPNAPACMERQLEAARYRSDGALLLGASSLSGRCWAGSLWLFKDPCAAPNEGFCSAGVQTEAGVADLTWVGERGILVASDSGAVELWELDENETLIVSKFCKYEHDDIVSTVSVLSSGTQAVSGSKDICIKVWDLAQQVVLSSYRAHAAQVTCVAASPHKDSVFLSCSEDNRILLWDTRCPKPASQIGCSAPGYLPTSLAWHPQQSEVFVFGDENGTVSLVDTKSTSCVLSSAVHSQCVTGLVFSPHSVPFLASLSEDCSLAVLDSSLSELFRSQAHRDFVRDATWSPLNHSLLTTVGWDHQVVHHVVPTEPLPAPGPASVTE

As for `Cc1cc2cc(C(=O)N(Cc3ccc4[nH]c(=O)oc4c3)Cc3ccc(C(F)(F)F)cn3)ccc2nc1N` [Example 620, 2-amino-3-methyl-N-((2-oxo-2,3-dihydrobenzo [d]oxazol-6-yl)methyl)-N-((5-(trifluoromethyl)pyridin-2-yl)methyl)quinoline-6-carboxamide], the IC50 (usually the concentration needed to halve the response being measured) in assay [1] is 100 nM; in assay [2] it was > 1000 nM. In addition, the Ki (usually a dissociation constant, usually derived from enzyme kinetics or from competition with a known ligand) in assay [3] was 1.83 nM.

Take `Cc1cc2cc(C(=O)N(Cc3ccc(C#N)cn3)C3CCCC3C#N)c(F)cc2nc1N` (stereo not drawn) [Example 703, 2-amino-N-(2-cyanocyclopentyl)-N-[(5-cyano-2-pyridyl)methyl] -7-fluoro-3-methyl-quinoline-6-carboxamide]: the IC50 is 222 nM in assay [1] and 2300 nM in assay [2]. Further, the Ki in assay [3] is 5.62 nM.

As for `Cc1cc2cc(C(=O)N(Cc3ccc(C(F)(F)F)cn3)C3COc4c3ccc(C)c4C)ccc2nc1N` (stereo not drawn) [Example 610, 2-amino-N-(6,7-dimethyl-2,3-dihydrobenzofuran-3-yl)-3-methyl-N-((5-(trifluoromethyl)pyridin-2-yl)methyl)quinoline-6-carboxamide], the values for the IC50 in assay [1] and in assay [2] were 540 nM and > 1000 nM, respectively. Besides, the Ki in assay [3] was found to be 9.6 nM.

With `Cc1cc2cc(C(=O)N(Cc3ccc(C(F)(F)F)cn3)C3CC(C)(C)c4ccccc43)ccc2nc1N` (stereo not drawn) [Example 594, 2-amino-N-(3,3-dimethyl-2,3-dihydro-1H-inden-1-yl)-3-methyl-N-((5-(trifluoromethyl)pyridin-2-yl)methyl)quinoline-6-carboxamide], the IC50 was 640 nM in assay [1] and > 1000 nM in assay [2]. In assay [3], the Ki stood at 26 nM.

As to `Cc1cc2cc(C(=O)N(Cc3ccc4ccoc4c3)Cc3ccc(C(F)(F)F)cn3)ccc2nc1N` [Example 622, 2-amino-N-(benzofuran-6-ylmethyl)-3-methyl-N-((5-(trifluoromethyl)pyridin-2-yl)methyl)quinoline-6-carboxamide], the values for the IC50 in assay [1] and in assay [2] were 130 nM and > 1000 nM, respectively. In assay [3], the Ki amounted to 1.98 nM.

For `Cc1cc2cc(C(=O)N(Cc3ccc(C(F)(F)F)cn3)C3CCCc4occc43)ccc2nc1N` (stereo not drawn) [Example 606, 2-amino-3-methyl-N-(4,5,6,7-tetrahydrobenzofuran-4-yl)-N-((5-(trifluoromethyl)pyridin-2-yl)methyl)quinoline-6-carboxamide], the IC50 in assay [1] is 27 nM; in assay [2], 280 nM. For the same compound, the Ki in assay [3] turned out to be 2.9 nM.

For `Cc1cc2cc(C(=O)N(Cc3ccc(C(F)(F)F)cn3)C[C@H]3CC[C@H](O)CC3)ccc2nc1N` [Example 676, 2-amino-N-[(4-hydroxycyclohexyl)methyl]-3-methyl-N-[[5-(trifluoromethyl)-2-pyridyl]methyl] quinoline-6-carboxamide], the IC50 in assay [1] is 255 nM; in assay [2], > 1000 nM. The Ki in assay [3] amounted to 3.88 nM.

On to `Cc1cc2cc(C(=O)N(Cc3cnc4[nH]ccc4c3)Cc3ccc(C(F)(F)F)cn3)ccc2nc1N` [Example 598, 2-amino-3-methyl-N-(1H-pyrrolo [2,3-b]pyridin-5-ylmethyl)-N-[[5-(trifluoromethyl)-2-pyridyl]methyl]quinoline-6-carboxamide], for which the IC50 is 180 nM in assay [1] and > 1000 nM in assay [2]. Also, the Ki in assay [3] stood at 2.44 nM.

Regarding `Cc1cc2cc(C(=O)N(Cc3ccc(C(F)(F)F)cn3)C3COCc4ccccc43)ccc2nc1N` (stereo not drawn) [Example 593, 2-amino-N-(isochroman-4-yl)-3-methyl-N-((5-(trifluoromethyl)pyridin-2-yl)methyl)quinoline-6-carboxamide], the IC50 in assay [1] was 185 nM; in assay [2], > 1000 nM. Moreover, in assay [3], the Ki was 13.2 nM.

With `Cc1cc2cc(C(=O)N(Cc3ccc(C(F)(F)F)cn3)C3CCC(C)c4ccccc43)ccc2nc1N` (stereo not drawn) [Example 602, 2-amino-3-methyl-N-(4-methyl-1,2,3,4-tetrahydronaphthalen-1-yl)-N-((5-(trifluoromethyl)pyridin-2-yl)methyl)quinoline-6-carboxamide], the values for the IC50 in assay [1] and in assay [2] were 85 nM and > 1000 nM, respectively. In assay [3], the Ki turned out to be 7.26 nM.

As to `Cc1cc2cc(C(=O)N(Cc3ccc(C(F)(F)F)cn3)C3CC(C)c4ccccc43)ccc2nc1N` (stereo not drawn) [Example 595, 2-amino-3-methyl-N-(3-methyl-2,3-dihydro-1H-inden-1-yl)-N-((5-(trifluoromethyl)pyridin-2-yl)methyl)quinoline-6-carboxamide], the IC50 in assay [1] stood at 990 nM; in assay [2], 8200 nM. Besides, in assay [3], the Ki came out at 21.5 nM.

Take `Cc1cc2cc(C(=O)N(Cc3ccc(C(F)(F)F)cn3)C3CCCC3C#N)c(F)cc2nc1N` (stereo not drawn) [Example 702, 2-amino-N-(2-cyanocyclopentyl)-7-fluoro-3-methyl-N-[[5-(trifluoromethyl)-2-pyridyl]methyl] quinoline-6-carboxamide]: the results for the IC50 in assay [1] and in assay [2] were 46 nM and 560 nM, respectively. In addition, the Ki in assay [3] is 5.12 nM.

`Cc1cc2cc(C(=O)N(Cc3ccc(C(F)(F)F)cn3)CC3CCOCC3C)ccc2nc1N` (stereo not drawn) [Example 596, 2-amino-3-methyl-N-((3-methyltetrahydro-2H-pyran-4-yl)methyl)-N-((5-(trifluoromethyl)pyridin-2-yl)methyl)quinoline-6-carboxamide]: the IC50 in assay [1] is 352 nM; in assay [2], > 10000 nM. Also, the Ki in assay [3] was 17.1 nM.

As for `Cc1cc2cc(C(=O)N(Cc3ccc(C(F)(F)F)cn3)CC3CCOCC3)ccc2nc1N` [Example 683, 2-amino-3-methyl-N-(tetrahydropyran-4-ylmethyl)-N-[[5-(trifluoromethyl)-2-pyridyl]methyl] quinoline-6-carboxamide], the IC50 in assay [1] was 297 nM; in assay [2], > 1000 nM. The Ki in assay [3] was 4.29 nM.

Regarding `Cc1cc2cc(C(=O)N(Cc3ccc(C(F)(F)F)cn3)C3CCCC(O)C3)ccc2nc1N` (stereo not drawn) [Example 612, 2-amino-N-(3-hydroxycyclohexyl)-3-methyl-N-((5-(trifluoromethyl)pyridin-2-yl)methyl)quinoline-6-carboxamide], the IC50 in assay [1] is 340 nM; in assay [2] it was > 1000 nM. In addition, the Ki in assay [3] was determined as 7.56 nM.

Regarding `Cc1cc2cc(C(=O)N(Cc3ccc(C(F)(F)F)cn3)[C@@H]3c4ccccc4C[C@H]3O)ccc2nc1N` [Example 609, 2-amino-N-((1R,2R)-2-hydroxy-2,3-dihydro-1H-inden-1-yl)-3-methyl-N-((5-(trifluoromethyl)pyridin-2-yl)methyl)quinoline-6-carboxamide], the IC50 is 540 nM in assay [1] and > 1000 nM in assay [2]. Besides, the Ki in assay [3] turned out to be 26.8 nM.

Turning to `Cc1cc2c(nc1N)CCC(C(=O)N(Cc1ccc(C(F)(F)F)cn1)Cc1ccnc3[nH]ccc13)C2` (stereo not drawn) [Example 581, N-((1H-pyrrolo[2,3-b]pyridin-4-yl)methyl)-2-amino-3-methyl-N-((5-(trifluoromethyl)pyridin-2-yl)methyl)-5,6,7,8-tetrahydroquinoline-6-carboxamide], the IC50 in assay [1] was 840 nM; in assay [2] it was > 1000 nM. Also, the Ki in assay [3] worked out at 16 nM.

As for `Cc1nc2c(s1)C(N(Cc1ccc(C(F)(F)F)cn1)C(=O)c1ccc3nc(N)c(C)cc3c1)CCC2` (stereo not drawn) [Example 604, 2-amino-3-methyl-N-(2-methyl-4,5,6,7-tetrahydrobenzo[d]thiazol-7-yl)-N-((5-(trifluoromethyl)pyridin-2-yl)methyl)quinoline-6-carboxamide], the IC50 came out at 44 nM in assay [1] and 400 nM in assay [2]. Also, the Ki in assay [3] is 5.46 nM.

The record behind these values is patent US20230159510A1, “NOVEL PRMT5 INHIBITORS” (AMGEN INC., priority 2020, published 2023).
